From patent US20110166109A1, “Synergistic Active Compound Combinations Comprising Phenyltriazoles” (Bayer CropScience AG, priority 2009, published 2011)
Where two headings read alike, the source gives them in different places.

Columns and labels:
Assay type in all cases: in vivo
Phaedon cochleariae = Phaedon cochleariae larvae test (treated cabbage leaves); settings: applied individually; for pest or weed control at 500 g/ha / pest or weed control at 100 g/ha / pest or weed control at 200 g/ha: Phaedon cochleariae, 144 h, after 6 d, read-out: Kill in % after 6d
Tetranychus urticae = assay: Tetranychus test (OP-resistant/spray treatment), bean leaf discs
Method: (§1) To produce a suitable preparation of active compound, 1 part by weight of active compound is mixed with the stated amounts of solvent and emulsifier, and the concentrate is diluted with emulsifier-containing water to the desired concentration.
Discs of bean leaves (Phaseolus vulgaris) which are infested by all stages of the greenhouse red spidermite (Tetranychus urticae) are sprayed with an active compound preparation of the desired concentration.
After the desired period of time, the effect in % is determined. 100% means that all spider mites have been killed; 0% means that none of the spider mites have been killed.

Myzus persicae = Myzus persicae test (spray treatment of infested cabbage leaves); settings: applied individually
Method: as §1
Cabbage leaves (Brassica oleracea) which are heavily infested by the green peach aphid (Myzus persicae) are treated by spraying with the active compound preparation of the desired concentration.
After the desired period of time, the kill in % is determined. 100% means that all of the aphids have been destroyed; 0% means that none of the aphids have been destroyed. The kill rates determined are entered into Colby's formula.

Spodoptera frugiperda = Spodoptera frugiperda larvae test (sprayed cabbage leaves); settings: applied individually
Method: as §1
Cabbage leaves (Brassica okracea) are treated by being sprayed with the preparation of active compound of the desired concentration and are populated with larvae of the armyworm (Spodoptera frugiperda) while the leaves are still moist.
After the desired period of time, the kill in % is determined. 100% means that all caterpillars have been killed; 0% means that none of the caterpillars have been killed. The kill rates determined are entered into Colby's formula.

[1] = Tetranychus urticae, foliar, 144 h, 500 g/ha, after 6 d, applied individually, read-out: Kill in % after 6d
[2] = Tetranychus urticae, foliar, 144 h, read-out: Kill in % after 6d

Compound: Cc1nn(C)c(F)c1C(=O)Nc1ccccc1C(C)CC(C)C (centres unmarked) [(6-18), N-[2-(1,3-dimethylbutyl)phenyl]-5-fluoro-1,3-dimethyl-1H-pyrazole-4-carboxamide]
- pest or weed control at 500 g/ha (Phaedon cochleariae; 500 g/ha): 0%
- Kill in % after 1d (Tetranychus urticae; 500 g/ha, applied individually): 0%
- pest or weed control at 500 g/ha (Tetranychus urticae; [1]): 0%

Compound: Cc1cc(C)c([S+]([O-])CC(F)(F)F)cc1-n1cnc(C(F)(F)F)n1 (centres unmarked) [(I-1)]
- Kill in % after 6d (Myzus persicae; 20 g/ha): 0%
- pest or weed control at 100 g/ha (Phaedon cochleariae): 0%
- Kill in % after 1d (Tetranychus urticae; 0.16 g/ha, applied individually): 0%
- pest or weed control at 0.16 g/ha (Tetranychus urticae; Tetranychus urticae, foliar, 144 h, 0.16 g/ha, after 6 d, applied individually, read-out: Kill in % after 6d): 0%
- pest or weed control at 0.8 g/ha (Tetranychus urticae; Tetranychus urticae, foliar, 144 h, 0.8 g/ha, after 6 d, applied individually, read-out: Kill in % after 6d): 60%

Compound: CO/C=C(/C(=O)OC)c1ccccc1Oc1cc(Oc2ccccc2C#N)ncn1 [azoxystrobin]
- pest or weed control at 500 g/ha (Phaedon cochleariae; 500 g/ha): 17%

Compound: CC(C)(C)C(O)C(Oc1ccc(-c2ccccc2)cc1)n1cncn1 (centres unmarked) [bitertanol]
- pest or weed control at 500 g/ha (Phaedon cochleariae; 500 g/ha): 0%

Compound: Cn1cc(C(=O)Nc2ccc(F)cc2-c2ccc(Cl)c(Cl)c2)c(C(F)F)n1 [bixafen, N-(3′,4′-dichloro-5-fluoro[1,1′-biphenyl]-2-yl)-3-(difluoromethyl)-1-methyl-1H-pyrazole-4-carboxamide]
- pest or weed control at 500 g/ha (Phaedon cochleariae; 500 g/ha): 0%
- Kill in % after 1d (Tetranychus urticae; 200 g/ha, applied individually): 0%

Compound: COC(=O)Nc1nc2ccccc2[nH]1 [carbendazim]
- Kill in % after 6d (Myzus persicae; 500 g/ha): 20%

Compound: CCC1(C(=O)NC(C)c2ccc(Cl)cc2)C(C)C1(Cl)Cl (centres unmarked) [carpropamid]
- pest or weed control at 500 g/ha (Phaedon cochleariae; 500 g/ha): 0%
- Kill in % after 6d (Spodoptera frugiperda; 500 g/ha): 0%

Compound: Cc1cc(F)c(-n2nc(C(F)(F)F)nc2N)cc1[S+]([O-])CC(F)(F)F (centres unmarked) [compound (I-4)]
- Kill in % after 1d (Myzus persicae; 100 g/ha): 0%
- pest or weed control at 100 g/ha (Phaedon cochleariae): 0%
- pest or weed control at 4 g/ha (Tetranychus urticae; Tetranychus urticae, foliar, 144 h, 4 g/ha, after 6 d, applied individually, read-out: Kill in % after 6d): 70%
- pest or weed control at 20 g/ha (Tetranychus urticae; Tetranychus urticae, foliar, 144 h, 20 g/ha, after 6 d, applied individually, read-out: Kill in % after 6d): 80%
- Kill in % after 6d (Spodoptera frugiperda; 100 g/ha): 0%

Compound: CSC1=N[C@@](C)(c2ccccc2)C(=O)N1Nc1ccccc1 [fenamidone]
- pest or weed control at 500 g/ha (Phaedon cochleariae; 500 g/ha): 0%
- pest or weed control at 500 g/ha (Tetranychus urticae; [2]): 0%
- Kill in % after 6d (Spodoptera frugiperda; 500 g/ha): 0%

Compound: N#Cc1c[nH]cc1-c1cccc2c1OC(F)(F)O2 [fludioxonil]
- pest or weed control at 200 g/ha (Phaedon cochleariae): 33%
- pest or weed control at 200 g/ha (Tetranychus urticae; [2]): 0%

Compound: O=C(NCc1ncc(C(F)(F)F)cc1Cl)c1c(Cl)cccc1Cl [fluopicolide, fluopicolid]
- Kill in % after 6d (Phaedon cochleariae; 500 g/ha): 0%
- pest or weed control at 500 g/ha (Phaedon cochleariae; 500 g/ha): 0%
- pest or weed control at 500 g/ha (Tetranychus urticae; [1]): 0%

Compound: O=C(NCCc1ncc(C(F)(F)F)cc1Cl)c1ccccc1C(F)(F)F [fluopyram, N-[2-[3-chloro-5-(trifluoromethyl)-2-pyridinyl]ethyl]-2-(trifluoromethyl)benzamide]
- pest or weed control at 500 g/ha (Phaedon cochleariae; 500 g/ha): 0%
- pest or weed control at 500 g/ha (Tetranychus urticae; [2]): 0%
- Kill in % after 6d (Spodoptera frugiperda; 500 g/ha): 0%

Compound: CO/N=C(/C1=NOCCO1)c1ccccc1Oc1ncnc(Oc2ccccc2Cl)c1F [fluoxastrobin]
- pest or weed control at 500 g/ha (Phaedon cochleariae; 500 g/ha): 33%
- pest or weed control at 500 g/ha (Tetranychus urticae; [2]): 0%

Compound: O=c1c2cc(F)ccc2nc(-n2cncn2)n1-c1ccc(Cl)cc1Cl [fluquincoazole, fluquinconazole]
- pest or weed control at 500 g/ha (Phaedon cochleariae; 500 g/ha): 17%
- pest or weed control at 500 g/ha (Tetranychus urticae; [2]): 0%

Compound: CC(C)C1CCC(Cc2ccc(Cl)cc2)C1(O)Cn1cncn1 (centres unmarked) [ipconazole]
- pest or weed control at 500 g/ha (Phaedon cochleariae; 500 g/ha): 0%

Compound: N#Cc1ccccc1NC(=O)c1snc(Cl)c1Cl [isotianil]
- pest or weed control at 500 g/ha (Phaedon cochleariae; 500 g/ha): 0%

Compound: COCC(=O)N(c1c(C)cccc1C)C(C)C(=O)OC (centres unmarked) [metalaxyl]
- Kill in % after 1d (Tetranychus urticae; 500 g/ha, applied individually): 0%
- pest or weed control at 500 g/ha (Tetranychus urticae; [2]): 0%

Compound: CNC(=O)/C(=N/OC)c1ccccc1Oc1ccccc1 [metominostrobin]
- pest or weed control at 500 g/ha (Tetranychus urticae; [2]): 0%

Compound: O=C(Nc1ccccc1)N(Cc1ccc(Cl)cc1)C1CCCC1 [pencycuron]
- pest or weed control at 500 g/ha (Phaedon cochleariae; 500 g/ha): 0%

Compound: CCCOC(=O)NCCCN(C)C [propamocarb]
- pest or weed control at 200 g/ha (Phaedon cochleariae): 17%
- Kill in % after 1d (Tetranychus urticae; 500 g/ha, applied individually): 0%
- pest or weed control at 500 g/ha (Tetranychus urticae; [1]): 0%

Compound: OC(Cc1ccccc1Cl)(Cn1ncnc1S)C1(Cl)CC1 (centres unmarked) [prothioconazole]
- pest or weed control at 500 g/ha (Phaedon cochleariae; 500 g/ha): 0%
- pest or weed control at 200 g/ha (Tetranychus urticae; [2]): 0%
- Kill in % after 6d (Spodoptera frugiperda; 500 g/ha): 0%

Compound: CCCN(CC)CC1COC2(CCC(C(C)(C)C)CC2)O1 (centres unmarked) [spiroxamine]
- pest or weed control at 200 g/ha (Tetranychus urticae; [2]): 0%

Compound: CC(C)(C)C(O)(CCc1ccc(Cl)cc1)Cn1cncn1 (centres unmarked) [tebuconazole]
- pest or weed control at 500 g/ha (Phaedon cochleariae; 500 g/ha): 0%
- pest or weed control at 200 g/ha (Tetranychus urticae; [2]): 0%
- Kill in % after 6d (Spodoptera frugiperda; 500 g/ha): 0%

Compound: Cc1ccc(N(SC(F)(Cl)Cl)S(=O)(=O)N(C)C)cc1 [tolyfluanid, tolylfluanid]
- pest or weed control at 500 g/ha (Phaedon cochleariae; 500 g/ha): 0%

Compound: CC(C)(C)C(O)C(Oc1ccc(Cl)cc1)n1cncn1 (centres unmarked) [triadimenol]
- pest or weed control at 500 g/ha (Phaedon cochleariae; 500 g/ha): 0%
- pest or weed control at 200 g/ha (Tetranychus urticae; [2]): 0%
- Kill in % after 6d (Spodoptera frugiperda; 500 g/ha): 0%

Compound: CO/N=C(/C(=O)OC)c1ccccc1CO/N=C(\C)c1cccc(C(F)(F)F)c1 [trifloxystrobin]
- Kill in % after 1d (Myzus persicae; 500 g/ha): 70%
- pest or weed control at 200 g/ha (Phaedon cochleariae): 17%
- pest or weed control at 500 g/ha (Phaedon cochleariae; 500 g/ha): 0%
- pest or weed control at 500 g/ha (Tetranychus urticae; [2]): 0%
